pIC50: −log10 of the molar value.
Columns and labels:
Coagulation factor X = Coagulation factor X (Homo sapiens, UniProt P00742); assay: Inhibitory concentration against human Coagulation factor X
Prothrombin = Prothrombin (Homo sapiens, UniProt P00734); assay: Inhibitory concentration against Coagulation factor II
Mus musculus = organism: Mus musculus; assay: Concentration required to produce 50% inhibition of tissue factor-induced platelet aggregation in disseminated intravascular coagulation (DIC) mouse model; type: functional

Chain of Coagulation factor X (P00742 41-179 limits assumed): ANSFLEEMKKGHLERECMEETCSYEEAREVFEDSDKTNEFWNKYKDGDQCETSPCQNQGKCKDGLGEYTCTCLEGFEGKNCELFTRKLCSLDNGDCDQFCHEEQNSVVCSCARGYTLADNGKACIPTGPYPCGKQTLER
Chain of Coagulation factor X (P00742 235-488 limits assumed): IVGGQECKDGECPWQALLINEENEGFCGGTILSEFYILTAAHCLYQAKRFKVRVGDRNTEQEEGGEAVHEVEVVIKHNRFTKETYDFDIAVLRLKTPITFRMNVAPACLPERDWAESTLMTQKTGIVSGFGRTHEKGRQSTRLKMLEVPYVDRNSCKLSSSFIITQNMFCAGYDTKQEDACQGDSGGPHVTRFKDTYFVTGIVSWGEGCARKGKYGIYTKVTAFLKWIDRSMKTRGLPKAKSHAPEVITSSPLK

Row | SMILES | pIC50 (Coagulation factor X) | pIC50 (Prothrombin) | ED50 (Mus musculus) [mg/kg]
1 | CC(=N)N1CCC(Oc2ccc(N(Cc3nc4cc(C(=N)N)ccc4n3CC(=O)NC(C)(C)c3ccccc3)C(=O)c3ccc(C(=O)O)cc3)cc2)CC1 | 6.70 | < 5.00 | –
2 | CC(=N)N1CCC(Oc2ccc(N(Cc3nc4cc(C(=N)N)ccc4n3CC(=O)NC3CCCCC3)C(=O)c3ccc(C(=O)O)cc3)cc2)CC1.Cl.Cl | – | – | 0.2
3 | N=C(N)c1ccc2c(c1)nc(CN(C(=O)c1ccc(C(=O)O)cc1)c1ccc(OC3CCN(C(=N)NCc4ccccc4)CC3)cc1)n2CC(=O)NC1CCCCC1 | – | < 5.00 | –
4 | CC(=N)N1CC[C@H](Oc2ccc(CCc3cc4cc(C(=N)N)ccc4o3)cc2)C1 | 6.22 | < 5.00 | –
5 | N=C(N)c1ccc(Oc2ccc(N(Cc3nc4cc(C(=N)N)ccc4n3CC(=O)NC3CCCCC3)C(=O)c3ccc(C(=O)O)cc3)cc2)cc1 | 5.70 | < 5.00 | –
6 | CC(=N)N1CCC(Oc2ccc(OCc3nc4cc(C(=N)N)ccc4n3CC(=O)NC(C)c3ccccc3)cc2)CC1 (centres undefined) | 7.52 | < 5.00 | –
7 | CC(=N)N1CCC(Oc2ccc(OCc3nc4cc(C(=N)N)ccc4n3CC(=O)N3CCCCC3)cc2)CC1 | 5.52 | < 5.00 | –
8 | CCn1c(COc2ccc(OC3CCN(C(C)=N)CC3)cc2)nc2cc(C(=N)N)ccc21 | 6.40 | < 5.00 | –
9 | CC(=N)N1CCC(Oc2ccc(OCc3nc4cc(C(=N)N)ccc4n3CC(=O)NCc3ccc(Cl)c(Cl)c3)cc2)CC1 | 7.52 | < 5.00 | –
10 | CC(=N)N1CCC(Oc2ccc(N(Cc3nc4cc(C(=N)N)ccc4n3CC(=O)NC3CCCCC3)C(=O)c3ccc(C(=O)O)cc3)cc2)C1 (centres undefined) | 7.00 | < 5.00 | –
11 | CC(=N)N1CC[C@H](Oc2ccc([C@H](Cc3ccc4ccc(C(=N)N)cc4c3)C(=O)O)cc2)C1.Cl [DX-9065A HYDROCHLORIDE HYDRATE] | – | – | 0.5

Second part, led by results:

Row | pIC50 (Coagulation factor X) | pIC50 (Prothrombin) | SMILES | ED50 (Mus musculus) [mg/kg]
12 | 7.00 | < 5.00 | CC(=N)N1CCC(Oc2ccc(OCc3nc4cc(C(=N)N)ccc4n3CC(=O)NCc3ccccc3)cc2)CC1 | –
13 | 7.40 | < 5.00 | CC(=N)N1CCC(Oc2ccc(OCc3nc4cc(C(=N)N)ccc4n3CC(=O)NC3CCCCC3)cc2)CC1 | –
14 | 6.52 | < 5.00 | CC(=N)N1CCC(Oc2ccc(OCc3nc4cc(C(=N)N)ccc4n3CC(=O)NCC3CCCCC3)cc2)CC1 | –
15 | 7.00 | < 5.00 | CC(=N)N1CCC(Oc2ccc(OCc3nc4cc(C(=N)N)ccc4n3CC(=O)Nc3ccccc3)cc2)CC1 | –
16 | 8.22 | < 5.00 | CC(=N)N1CCC(Oc2ccc(N(Cc3nc4cc(C(=N)N)ccc4n3CC(=O)NCc3ccc(Cl)c(Cl)c3)C(=O)c3ccc(C(=O)O)cc3)cc2)CC1.Cl.Cl | 0.7
17 | 7.22 | < 5.00 | CC(=N)N1CCC(Oc2ccc(OCc3nc4cc(C(=N)N)ccc4n3CC(=O)Nc3ccc(Cl)c(Cl)c3)cc2)CC1 | –
18 | 6.70 | < 5.00 | CC(=N)N1CCC(Oc2ccc(N(Cc3nc4cc(C(=N)N)ccc4n3CC(=O)Nc3ccc(Cl)c(Cl)c3)C(=O)c3ccc(C(=O)O)cc3)cc2)CC1.Cl.Cl | 0.7
19 | 6.70 | < 5.00 | CC(=N)N1CCC(Oc2ccc(OCc3nc4cc(C(=N)N)ccc4n3CC(=O)NCCCc3ccccc3)cc2)CC1 | –
20 | 6.52 | < 5.00 | N=C(N)c1ccc2c(c1)nc(CN(C(=O)c1ccc(C(=O)O)cc1)c1ccc(OC3CCNC3)cc1)n2CC(=O)NC1CCCCC1 (centres undefined) | –
